# Test results as given in US10738082B2, “One-bead-two-compound macrocyclic library and methods of preparation and use” (University of South Florida, priority 2017, dated 2020).
# Tests used:
# GST protein = GST protein (Schistosoma japonicum, UniProt P08515); test: Fluorescence polarization (FP) binding assay, GST protein
# cell migration = details: 10 μM, 24 hours
# Protocol: Invasion and migration assays were performed as described before. Cells were plated into the top chambers and treated with either vehicle or 10 μM C-84. 24 hours later cells in top chamber were scraped and migrated cells were fixed with crystal violet staining.
# cell invasion = test: Cell invasion assay; format: cell-based; details: 10 μM, 24 hours
# Protocol: Invasion and migration assays were performed as described before.
# Chain of GST protein (P08515 whole entry): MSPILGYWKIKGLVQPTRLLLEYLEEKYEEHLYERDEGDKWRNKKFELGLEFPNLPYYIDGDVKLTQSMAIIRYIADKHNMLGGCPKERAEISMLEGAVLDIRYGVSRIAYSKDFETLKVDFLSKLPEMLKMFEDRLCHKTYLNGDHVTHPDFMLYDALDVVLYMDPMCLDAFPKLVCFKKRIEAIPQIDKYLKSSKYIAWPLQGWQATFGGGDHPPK
SMILES,GST binding weaker than EphA2 binding (GST protein; Kd GST vs Kd EphA2) [fold],"Kd (GST protein; fluorescence polarization, 50 nM FITC labeled AApeptide, GST 0.3125 to 55 μM, read-out: binding affinity to GST protein, Kd) [µM]",decrease in cell migration (cell migration),decrease in cell invasion (cell invasion) [%]
NC(=O)[C@H](CCCCNC(=S)Nc1ccc(-c2c3ccc(=O)cc-3oc3cc(O)ccc23)c(C(=O)O)c1)NC(=O)CN1C[C@H](Cc2ccccc2)NC(=O)CN(C(=O)CCC(=O)O)C[C@H](CCC(=O)O)NC(=O)CN(C(=O)Cc2ccc3c(c2)OCO3)C[C@H](CCC(=O)O)NC(=O)CN(C(=O)CCC2CCCCC2)C[C@H](Cc2ccccc2)NC(=O)c2ccc(cc2)CSCCC1=O [YS-D-44],~150,12.3,,
NC(=O)CN1C[C@H](Cc2ccccc2)NC(=O)CN(C(=O)CCC(=O)O)C[C@H](CCC(=O)O)NC(=O)CN(C(=O)Cc2ccc3c(c2)OCO3)C[C@H](CCC(=O)O)NC(=O)CN(C(=O)CCC2CCCCC2)C[C@H](Cc2ccccc2)NC(=O)c2ccc(cc2)CSCCC1=O [C-84],,,around 70%,~80
